Here are results for 6 molecules from patent US20230036854A1, “HETEROCYCLIC SPIRO-COMPOUNDS AS AM2 RECEPTOR INHIBITORS” (THE UNIVERSITY OF SHEFFIELD, priority 2018, published 2023).

Where no end group is shown, it is not given here.

For one experiment, the target named is T1, AM2 receptor (1321N1 cells transfected with CALCRL+RAMP3) (Homo sapiens, UniProt O60896+Q16602).
T1 construct: host or cells: 1321N1 cells
T1 sequence (Q16602 23-461): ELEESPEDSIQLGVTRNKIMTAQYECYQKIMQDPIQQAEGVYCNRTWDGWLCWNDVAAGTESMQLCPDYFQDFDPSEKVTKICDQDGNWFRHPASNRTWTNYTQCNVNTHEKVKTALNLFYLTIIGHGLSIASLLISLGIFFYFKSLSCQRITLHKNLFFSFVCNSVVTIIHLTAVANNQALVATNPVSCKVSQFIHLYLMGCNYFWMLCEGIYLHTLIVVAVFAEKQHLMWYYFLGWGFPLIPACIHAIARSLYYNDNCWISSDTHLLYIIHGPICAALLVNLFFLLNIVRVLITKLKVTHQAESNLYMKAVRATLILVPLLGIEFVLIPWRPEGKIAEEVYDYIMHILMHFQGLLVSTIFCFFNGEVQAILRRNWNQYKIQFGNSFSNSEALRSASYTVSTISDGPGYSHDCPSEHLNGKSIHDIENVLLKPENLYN
T1 sequence (O60896 24-148): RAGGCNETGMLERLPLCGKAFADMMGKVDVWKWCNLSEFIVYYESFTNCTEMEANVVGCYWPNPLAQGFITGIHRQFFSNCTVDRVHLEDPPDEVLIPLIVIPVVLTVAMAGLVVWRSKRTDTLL
Kind of experiment: AM2 receptor inhibition, LANCE cAMP agonist-antagonist competition assay. The class given is cell-based. To be noted: inhibition of AM induced cAMP activation, read-out: AM2 D2 protocol: pIC50 (converted). The method in brief:
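1321N1 cells co-expressing CALCRL and RAMP3 (2500/well) were preincubated with compound for 30 min at room temperature, then stimulated with adrenomedullin at its EC50 dose for 15 min in HBSS/HEPES/BSA buffer, pH 7.4. cAMP was measured by LANCE TR-FRET and normalised to forskolin (100%) and vehicle (0%) controls.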
For orientation: Time-resolved FRET reads energy transfer from a long-lived donor to a nearby acceptor.
On to `CNCc1ccccc1CN(CC(=O)Nc1ccc2c(c1)C[C@@]1(C2)C(=O)Nc2ncccc21)C(=O)C1(C)CCCN(C(C)=O)C1` (stereo partly drawn) [Example 145, 1-Acetyl-3-methyl-N-(2-((methylamino)methyl)benzyl)-N-(2-oxo-2-(((R)-2′-oxo-1,1′,2′,3-tetrahydrospiro[indene-2,3′-pyrrolo[2,3-b]pyridin]-5-yl)amino)ethyl)piperidine-3-carboxamide], for which the IC50 is 302 nM. Regarding `CNCc1ccccc1CN(CC(=O)Nc1ccc2c(c1)C[C@@]1(C2)C(=O)Nc2ncccc21)C(=O)C1(C)CCCNC1` (stereo partly drawn) [Example 146, 3-Methyl-N-(2-((methylamino)methyl)benzyl)-N-(2-oxo-2-(((R)-2′-oxo-1,1′,2′,3-tetrahydrospiro[indene-2,3′-pyrrolo[2,3-b]pyridin]-5-yl)amino)ethyl)piperidine-3-carboxamide], the IC50 is 229 nM.

In the case of `CCC1(C(=O)N(CC(=O)Nc2ccc3c(c2)C[C@@]2(C3)C(=O)Nc3ncccc32)Cc2ccccc2CNC)CCS(=O)(=O)CC1` [Example 147, (R)-4-Ethyl-N-(2-((methylamino)methyl)benzyl)-N-(2-oxo-2-((2′-oxo-1,1′,2′,3-tetrahydrospiro[indene-2,3′-pyrrolo[2,3-b]pyridin]-5-yl)amino)ethyl)tetrahydro-2H-thiopyran-4-carboxamide 1,1-dioxide], the IC50 was 10.5 nM. The same measure, in the same setting: next, `CNCc1ccccc1CN(CC(=O)Nc1ccc2c(c1)C[C@@]1(C2)C(=O)Nc2ncccc21)C(=O)C1(C)CC2CCC(C1)N2C(C)=O` (stereo partly drawn) [Example 148, 8-Acetyl-3-methyl-N-(2-((methylamino)methyl)benzyl)-N-(2-oxo-2-(((R)-2′-oxo-1,1′,2′,3-tetrahydrospiro[indene-2,3′-pyrrolo[2,3-b]pyridin]-5-yl)amino)ethyl)-8-azabicyclo[3.2.1]octane-3-carboxamide]: 2.24 nM. On to `CNCc1ccccc1CN(CC(=O)Nc1ccc2c(c1)C[C@@]1(C2)C(=O)Nc2ncccc21)C(=O)C1(C)CCCN(C(C)=O)CC1` (stereo partly drawn) [Example 149, 1-Acetyl-4-methyl-N-(2-((methylamino)methyl)benzyl)-N-(2-oxo-2-(((R)-2′-oxo-1,1′,2′,3-tetrahydrospiro[indene-2,3′-pyrrolo[2,3-b]pyridin]-5-yl)amino)ethyl)azepane-4-carboxamide], for which the IC50 was 2.88 nM.

The test system of another experiment is human pancreatic cancer cells.
Assay: not given
Conditions: local injection directly into tumours, pancreatic cancer model; cited from earlier work.
For the molecule “AM22-52: "the AM peptide antagonist (AM22-52)"; "peptide and antibody AM2 receptor inhibitors are known such as AM22-52" (TVQKLAHQIYQFTDKDKDNVAPRSKISPQGY; ends and bridges not checked; UniProt P35318 116-146, looked up, fragment)”, the “tumour size compared to controls” value is listed as “reduced tumour size significantly”.
